Source: patent publication US11124785B2, “Rothia subtilisins, S8A family proteases, as therapeutic enzymes for application in gluten intolerance disorders” (TRUSTEES OF BOSTON UNIVERSITY, priority 2016, dated 2021)

How the values were obtained:
Type in all cases: biochemical
FRET substrate PQPQPQ = assay: FRET substrate hydrolysis, PQPQPQ; conditions: substrate 100 μM, Rmep 1 μg/ml, subtilisin A 0.5 μg/ml, pH 8.0
Description: (§1) FIG. 4D and FIG. 4E are representative graphs of the hydrolysis of gliadin-derived FRET substrates. FRET substrates containing QPQLPY (SEQ ID NO: 22), PQPQPQ (SEQ ID NO: 23) and QGSFQP (SEQ ID NO: 24), each at 100 μM, were incubated with Rmep […] and subtilisin A (FIG. 4E), at 1 μg/ml and 0.5 μg/ml, respectively. Controls were boiled Rmep and subtilisin A incubated with PQPQLPY (+) (SEQ ID NO: 25), PQPQPQ (⋄) (SEQ ID NO: 23) and QGSFQP (*) (SEQ ID NO: 24) (no activity, baseline).
(§2) FRET substrate hydrolysis—Three fluorescence resonance energy transfer (FRET) substrates comprising the hexapeptides QPQLPY (SEQ ID NO: 22), PQPQPQ (SEQ ID NO: 23) and QGSFQP (SEQ ID NO: 24) were synthesized with at the N-terminus the HILYTE FLUOR™ 488 label, and at the C-terminus with K(QXL520) (Anaspec, Fremont, Calif.). Rmep (1 μg/ml) and subtilisin A (0.5 μg/ml) were incubated with the substrates (100 μM) in 50 mM TrisHCl pH 8.0. Samples were incubated at 37° C. and fluorescence increase, indicating hydrolysis, was measured every 5 min for 30 min, and every 10 min for the next 30 min, at λex 485 nm and λem 520 nm, using a Genios microtiter plate reader in the kinetic mode.

Suc-AAPF-pNA [1] = assay: pH activity profile of Rmep with Suc-AAPF-pNA; conditions: Suc-AAPF-pNA 200 μM; citric acid/phosphate buffer mixtures pH 2-12
Description: Activity of Rmep in 0.1M Citric acid/0.2M phosphate buffer mixtures, pH 2-12, was measured with Suc-AAPF-pNA (SEQ ID NO: 4) (200 μM) as the substrate.
(§3) Hydrolysis of paranitroanilide-derivatized substrates—Paranitroanilide (pNA)-derivatized tripeptide substrates were chemically synthesized at >90% purity (21st Century Biochemicals, Marlborough, Mass.). The substrates obtained were Z-YPQ-pNA, Z-QQP-pNA, Z-LPY-pNA, Z-PFP-pNA, Z-PPF-pNA, where Z=benzyloxycarbonyl, Y=tyrosine, P=proline, Q=glutamine, L=leucine, and F=phenylalanine Suc-AAPF-pNA (SEQ ID NO: 4) was obtained from Sigma, where Suc=N-succinyl and A=alanine. The peptides were dissolved in 75-100% DMSO at 10 mM, and were used at a final concentration of 200 μM in 50 mM TrisHCl pH 8.0. Purified Rothia enzyme or subtilisin A from Bacillus licheniformis (Sigma) were tested at final concentrations of 1 μg/ml. Some experiments were conducted in the presence of inhibitors 4-(2-Aminoethyl) benzenesulfonyl fluoride (AEBSF), Aprotinin, E-64, EDTA, phenylmethanesulfonyl fluoride (PMSF) and Eglin C, which were tested at final concentrations of 10 mM, 0.08 mM, 0.1 mM, 1.5 mM, 1 mM, and 0.06-1.2 μM, respectively. […] Substrate hydrolysis was monitored for 10 h at 405 nm using a Genios microtiter plate reader (Tecan, Männedorf, Switzerland) in the kinetic mode at 37° C.

gliadins = assay: Gliadin degradation control of Example 3 (SDS-PAGE); conditions: gliadins 500 μg/ml, enzyme 25 μg/ml, pH 8.0
Description: (§4) FIGS. 15A-15F show effective ATI degradation by subtilisins from B. subtilis (nattokinase). […] ATI (500 μg/ml) incubated with Rmep from R. mucilaginosa (FIG. 15A) or nattokinase from B. subtilis (FIG. 15C) at 50, 25, or 10 μg/ml; FIGS. 15B and 15D, Gliadins (500 μg/ml) incubated with Rmep (FIG. 15B) or nattokinase (FIG. 15D) at 25 μg/ml. FIGS. 15E and 15F, ATIs incubated with control heat inactivated enzymes, Rmep (FIG. 15E) or nattokinase (FIG. 15F).
(§5) ATIs were isolated from wheat cultivars as described^3. They were incubated at a final concentration of 500 μg/ml with 10, 25 or 50 μg/ml Rmep (from R. mucilaginosa), or nattokinase (from B. subtilis). The controls incubations were carried out with heat-inactivated Rmep and nattokinase. Experiments were conducted in 50 mM Tris-HCl, pH 8.0. After 0, 15 min, 30 min, 1 h, and 4 h incubation, 20 μl aliquots were removed, mixed with SDS-sample buffer, heated at 85° C. for 5 min and analyzed by 4-12% SDS PAGE. Proteins were visualized with Coomassie Blue staining.

[2] = system: gliadin-derived FRET substrate QPQLPY; assay: FRET substrate hydrolysis, QPQLPY; conditions: substrate 100 μM, Rmep 1 μg/ml, pH 8.0, 37° C.
Description: as §1, §2

Z-YPQ-pNA = assay: Hydrolysis of paranitroanilide-derivatized substrate Z-YPQ-pNA; conditions: substrate 200 μM, enzyme 1 μg/ml, pH 8.0; second most rapid after Suc-AAPF-pNA
Description: (§6) FIG. 4A and FIG. 4B are representative graphs of the hydrolysis of the substrates: Suc-AAPF-pNA (SEQ ID NO: 4), Z-YPQ-pNA, and Z-LPY-pNA, each at 200 μM, by Rmep and subtilisin A, respectively, each at 1 μg/ml.
as §3

wheat ATI proteins = assay: Degradation of amylase-trypsin inhibitors (SDS-PAGE); conditions: ATIs 500 μg/ml, enzyme 10, 25 or 50 μg/ml, pH 8.0, up to 4 h
Description: as §4, §5

Suc-AAPF-pNA [3] = assay: Hydrolysis of paranitroanilide-derivatized substrate Suc-AAPF-pNA; conditions: substrate 200 μM; enzyme 1 μg/ml (NattoK: dilution series); 50 mM TrisHCl pH 8.0, 37° C.
Description: as §6
FIG. 8C show a representative graph of the hydrolysis of the substrate, Suc-AAPF-pNA (SEQ ID NO: 4), with a dilution series of NattoK. Suc-AAPF-pNA (SEQ ID NO: 4) was incubated […]. Hydrolysis was measured at 405 nm.
(§7) Hydrolysis of paranitroanilide-derivatized substrates—Paranitroanilide (pNA)-derivatized tripeptide substrates were chemically synthesized at >90% purity (21st Century Biochemicals, Marlborough, Mass.). The substrates obtained were Z-YPQ-pNA, Z-QQP-pNA, Z-LPY-pNA, Z-PFP-pNA, Z-PPF-pNA, where Z=benzyloxycarbonyl, Y=tyrosine, P=proline, Q=glutamine, L=leucine, and F=phenylalanine Suc-AAPF-pNA (SEQ ID NO: 4) was obtained from Sigma, where Suc=N-succinyl and A=alanine. The peptides were dissolved in 75-100% DMSO at 10 mM, and were used at a final concentration of 200 μM in 50 mM TrisHCl pH 8.0. Purified Rothia enzyme or subtilisin A from Bacillus licheniformis (Sigma) were tested at final concentrations of 1 μg/ml. Some experiments were conducted in the presence of inhibitors 4-(2-Aminoethyl) benzenesulfonyl fluoride (AEBSF), Aprotinin, E-64, EDTA, phenylmethanesulfonyl fluoride (PMSF) and Eglin C, which were tested at final concentrations of 10 mM, 0.08 mM, 0.1 mM, 1.5 mM, 1 mM, and 0.06-1.2 μM, respectively. Enzymes were preincubated with the inhibitors for 20 min before adding Suc-AAPF-pNA (SEQ ID NO: 4). Substrate hydrolysis was monitored for 10 h at 405 nm using a Genios microtiter plate reader (Tecan, Männedorf, Switzerland) in the kinetic mode at 37° C.

Z-PPF-pNA = assay: Hydrolysis of paranitroanilide-derivatized substrate Z-PPF-pNA; conditions: fifty-fold increased enzyme concentrations (data not shown)
Description: as §7

[4] = system: gliadin-derived FRET substrate QGSFQP; assay: FRET substrate hydrolysis, QGSFQP; conditions: substrate 100 μM, Rmep 1 μg/ml, pH 8.0
Description: as §1, §2

Z-PFP-pNA = assay: Hydrolysis of paranitroanilide-derivatized substrate Z-PFP-pNA; conditions: substrate 200 μM, pH 8.0 (data not shown)
Description: as §7

Molecule	hydrolysis of FRET substrate PQPQPQ (FRET substrate PQPQPQ)	pH range over which the enzyme was active (Suc-AAPF-pNA [1])	degradation of gliadins (gliadins)	hydrolysis of FRET substrate QPQLPY [2]	hydrolysis of Z-YPQ-pNA (Z-YPQ-pNA)	degradation of wheat ATI proteins (wheat ATI proteins)	hydrolysis of Suc-AAPF-pNA (Suc-AAPF-pNA [3])	hydrolysis of Z-PPF-pNA (Z-PPF-pNA)	hydrolysis of FRET substrate QGSFQP [4]	hydrolysis of Z-PFP-pNA (Z-PFP-pNA)
Rmep: DEAE pooled fraction F2 of R. mucilaginosa ATCC 25296 extract with highest gluten-degrading enzyme activity; contains subtilisins C6R5V9_9MICC and C6R5W1_9MICC	rapidly hydrolyzed	6.0-10.0	degraded	rapidly hydrolyzed	cleaved	resistant to degradation	cleaved most rapidly	not	not cleaved	not hydrolyzed
subtilisin A: subtilisin A from Bacillus licheniformis (Sigma) (protein, listed as Bacillus licheniformis) MMRKKSFWLGMLTAFMLVFTMAFSDSASAAQPAKNVEKDYIVGFKSGVKTASVKKDIIKESGGKVDKQFRIINAAKAKLDKEALKEVKNDPDVAYVEEDHVAHALAQTVPYGIPLIKADKVQAQGFKGANVKVAVLDTGIQASHPDLNVVGGASFVAGEAYNTDGNGHGTHVAGTVAALDNTTGVLGVAPSVSLYAVKVLNSSGSGTYSGIVSGIEWATTNGMDVINMSLGGPSGSTAMKQAVDNAYARGVVVVAAAGNSGSSGNTNTIGYPAKYDSVIAVGAVDSNSNRASFSSVGAELEVMAPGAGVYSTYPTSTYATLNGTSMASPHVAGAAALILSKHPNLSASQVRNRLSSTATYLGSSFYYGKGLINVEAAAQ	highest activity				cleaved		cleaved most rapidly	hydrolyzed		not hydrolyzed
